Read-outs that look alike come from different tables or passages of the source. Starred links: 1 amine or outer side, 2 acyl side, 3 side chain; linkers in the order of their positions; H or OH if unused. Positions of bridges follow the written chain, without caps; N, C: chain ends. Non-standard residues stand in square brackets, D forms with d. Residues, ends and D or L forms follow the SMILES beside them. *: point of attachment. X4 = CN(C)C(=O)Cn1cc(-c2ccc(C[C@H](N[*:1])C(=O)[*:2])cc2)cn1; Phe(4-(2-MeO-Ph)) = COc1ccccc1-c1ccc(C[C@H](N)C(=O)O)cc1; Phe(3-OCH2COOH) = N[C@@H](Cc1cccc(OCC(=O)O)c1)C(=O)O; Trp(1-Ph) = N[C@@H](Cc1cn(-c2ccccc2)c2ccccc12)C(=O)O; NMePhe(3-Ph) = CN[C@@H](Cc1cccc(-c2ccccc2)c1)C(=O)O; X11 = O=C([C@H](Cc1ccc(-c2ccccc2Cl)cc1)N[*:1])[*:2]; Trp(6-OH) = N[C@@H](Cc1c[nH]c2cc(O)ccc12)C(=O)O; Phe(4-COOH) = N[C@@H](Cc1ccc(C(=O)O)cc1)C(=O)O; Piperazinyl(4-CH2COOH) = O=C(O)CN1CCN(*)CC1; Gly(decyl) = CCCCCCCCCC[C@H](N)C(=O)O; Gly(N(CH2)3COOH) = O=C(O)CCCNCC(=O)O; X1 = CCCCCCC[C@H](N[*:1])C(=O)[*:2]; NMeF = CN[C@@H](Cc1ccccc1)C(=O)O; NMeE = CN[C@@H](CCC(=O)O)C(=O)O; Cha = N[C@@H](CC1CCCCC1)C(=O)O; X12 = O=C(O)CCC1CCN(*)CC1; NMeA = CN[C@@H](C)C(=O)O; Sar = CNCC(=O)O
Legend:
GDF-11 = target: T1, GDF-11 (Homo sapiens, UniProt O95390); test: HepG2 reporter gene assay, Evaluation Procedure (2): 2-concentrations assay, GDF-11 inhibition; format: cell-based
T1 construct: purchased R&D systems 1958-GD-G8/CF
T1 sequence (O95390 299-407): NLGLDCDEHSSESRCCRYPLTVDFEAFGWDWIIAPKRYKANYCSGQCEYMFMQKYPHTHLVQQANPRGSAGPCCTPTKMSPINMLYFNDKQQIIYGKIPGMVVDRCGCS
Outline: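 HepG2 cells carrying the transfected pGL3(CAGA)12-luc reporter, a pGL3 vector with luciferase placed downstream of 12 CAGA repeats, were stimulated with GDF-11 at a final 10 ng/mL together with test peptide. Blank wells received no GDF-11 and no peptide. Plates were incubated 20 to 24 hours at 37°C with 5% CO2. Luminescence from One-Glo substrate was read to calculate percent inhibition.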

Myostatin = target: T2, Myostatin (Homo sapiens, UniProt O14793); test: HepG2 reporter gene assay, Evaluation Procedure (2): 2-concentrations assay, myostatin inhibition; format: cell-based
T2 construct: active myostatin (also called mature myostatin) is a homodimer consisting of two C-terminal growth factor domains; purchased R&D systems 788-G8/CF
T2 sequence (O14793 267-375): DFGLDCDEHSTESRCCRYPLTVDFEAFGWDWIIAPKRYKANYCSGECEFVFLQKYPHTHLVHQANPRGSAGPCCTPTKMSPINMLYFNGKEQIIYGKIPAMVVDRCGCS
Outline: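 Myostatin inhibition was measured in a luciferase reporter assay using HepG2 cells transfected with a pGL3 vector containing 12 CAGA repeats upstream of luciferase. After 20 to 24 hours with 10 ng/mL myostatin, cells received One-Glo:PBS (1:1) at 100 µL/well, were shaken for 5 min, and 20 µL/well was moved to 384-well plates and read on an Envision 2104.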

[1] = HepG2, first GDF-11 column of Table 7-3/7-4, GDF-11 10 ng/mL, peptide at the lower of the 2 concentrations, read-out: inhibition rate (GDF-11 inhibition assay)
[2] = HepG2, second GDF-11 column of Table 7-3/7-4, GDF-11 10 ng/mL, peptide at the higher of the 2 concentrations, read-out: inhibition rate (GDF-11 inhibition assay)
[3] = Table 7-3/7-4, myostatin 10 ng/mL, peptide at the higher of the 2 concentrations, HepG2, read-out: inhibition rate (myostatin inhibition assay)
[4] = Table 7-3/7-4, myostatin 10 ng/mL, peptide at the lower of the 2 concentrations, HepG2, read-out: inhibition rate (myostatin inhibition assay)
[5] = HepG2, read-out: inhibition rate (GDF-11 inhibition assay), Table 7-3/7-4, GDF-11 10 ng/mL, peptide at the higher of the 2 concentrations
[6] = HepG2, read-out: inhibition rate (GDF-11 inhibition assay), Table 7-3/7-4, GDF-11 10 ng/mL, peptide at the lower of the 2 concentrations
[7] = HepG2, read-out: inhibition rate (myostatin inhibition assay)

inhibition (GDF-11; [1]) [%]	inhibition (GDF-11; [2]) [%]	inhibition at 0.1 µM (Myostatin; [3]) [%]	inhibition at 0.03 µM (Myostatin; [4]) [%]	SMILES	inhibition (GDF-11; [5]) [%]	inhibition (GDF-11; [6]) [%]	inhibition at 0.03 µM (Myostatin; [7]) [%]	inhibition at 0.1 µM (Myostatin; [7]) [%]
2	51	100	100	CCCCCCC[C@@H]1NC(=O)[C@H](Cc2ccccc2)N(C)C(=O)[C@H](CCCNC(=N)N)NC(=O)[C@H](Cc2ccc(C(=O)O)cc2)NC(=O)[C@H](Cc2cccc(OCC(=O)O)c2)NC(=O)CN(C)C(=O)[C@H]([C@@H](C)CC)NC(=O)[C@H](Cc2ccccc2)N(C)C(=O)[C@H](Cc2ccc(O)cc2)NC(=O)[C@H](Cc2c[nH]c3ccccc23)NC(=O)[C@H](C)NC(=O)[C@H](C)NC(=O)CSC[C@H](C(=O)N2CCC(CCC(=O)O)CC2)NC(=O)[C@H](Cc2ccccc2)N(C)C(=O)[C@H](C)N(C)C1=O [Myostatin_99_v314] ({CH2CO}-AAWY[NMeF]I[Sar][Phe(3-OCH2COOH)][Phe(4-COOH)]R[NMeF][X1][NMeA][NMeF][dC]-X12; thioether N-15)				
0	19	100	100	CCCCCCC[C@@H]1NC(=O)[C@H](Cc2ccccc2)N(C)C(=O)[C@H](CCCNC(=N)N)NC(=O)[C@H](Cc2ccc(C(=O)O)cc2)NC(=O)[C@H](Cc2cccc(OCC(=O)O)c2)NC(=O)[C@H](C)N(C)C(=O)[C@H]([C@@H](C)CC)NC(=O)[C@H](Cc2ccccc2)N(C)C(=O)[C@H](Cc2ccc(O)cc2)NC(=O)[C@H](Cc2c[nH]c3cc(O)ccc23)NC(=O)[C@H](C)NC(=O)CN(CCCC(=O)O)C(=O)CSC[C@H](C(=O)O)NC(=O)[C@H](Cc2ccccc2)N(C)C(=O)[C@H](C)N(C)C1=O [Myostatin_99_v318] ({CH2CO}-[Gly(N(CH2)3COOH)]A[Trp(6-OH)]Y[NMeF]I[NMeA][Phe(3-OCH2COOH)][Phe(4-COOH)]R[NMeF][X1][NMeA][NMeF][dC]-OH; thioether N-15)				
				CCCCCCC[C@@H]1NC(=O)[C@H](Cc2ccccc2)N(C)C(=O)[C@H](CCCNC(=N)N)NC(=O)[C@H](Cc2ccc(C(=O)O)cc2)NC(=O)[C@H](Cc2ccc(-c3ccccc3Cl)cc2)NC(=O)[C@H](C)N(C)C(=O)[C@H]([C@@H](C)CC)NC(=O)[C@H](Cc2ccccc2)N(C)C(=O)[C@H](Cc2ccc(O)cc2)NC(=O)[C@H](Cc2ccc(-c3cnn(CC(=O)N(C)C)c3)cc2)NC(=O)[C@H](C)NC(=O)CN(CCCC(=O)O)C(=O)CSC[C@H](C(=O)O)NC(=O)[C@H](Cc2ccccc2)N(C)C(=O)[C@H](CCC(=O)O)N(C)C1=O [Myostatin_99_v321] ({CH2CO}-[Gly(N(CH2)3COOH)]A[X4]Y[NMeF]I[NMeA][X11][Phe(4-COOH)]R[NMeF][X1][NMeE][NMeF][dC]-OH; thioether N-15)	0	0	58	91
				CCCCCCC[C@@H]1NC(=O)[C@H](Cc2ccccc2)N(C)C(=O)[C@H](CCCNC(=N)N)NC(=O)[C@H](Cc2ccc(C(=O)O)cc2)NC(=O)[C@H](Cc2ccc(-c3ccccc3OC)cc2)NC(=O)[C@H](C)N(C)C(=O)[C@H]([C@@H](C)CC)NC(=O)[C@H](Cc2ccccc2)N(C)C(=O)[C@H](Cc2ccc(O)cc2)NC(=O)[C@H](Cc2c[nH]c3cc(O)ccc23)NC(=O)[C@H](C)NC(=O)CN(CCCC(=O)O)C(=O)CSC[C@H](C(=O)O)NC(=O)[C@H](Cc2ccccc2)N(C)C(=O)[C@H](CCC(=O)O)N(C)C1=O [Myostatin_99_v323] ({CH2CO}-[Gly(N(CH2)3COOH)]A[Trp(6-OH)]Y[NMeF]I[NMeA][Phe(4-(2-MeO-Ph))][Phe(4-COOH)]R[NMeF][X1][NMeE][NMeF][dC]-OH; thioether N-15)	0	0	97	99
49	86	100	100	CCCCCCC[C@@H]1NC(=O)[C@H](Cc2ccccc2)N(C)C(=O)[C@H](CCCNC(=N)N)NC(=O)[C@H](Cc2ccc(C(=O)O)cc2)NC(=O)[C@H](Cc2ccc(-c3ccccc3Cl)cc2)NC(=O)CN(C)C(=O)[C@H]([C@@H](C)CC)NC(=O)[C@H](Cc2ccccc2)N(C)C(=O)[C@H](Cc2ccc(O)cc2)NC(=O)[C@H](Cc2c[nH]c3cc(O)ccc23)NC(=O)[C@H](C)NC(=O)[C@H](C)NC(=O)CSC[C@H](C(=O)N2CCN(CC(=O)O)CC2)NC(=O)[C@H](Cc2ccccc2)N(C)C(=O)[C@H](CCC(=O)O)N(C)C1=O [Myostatin_99_v325] ({CH2CO}-AA[Trp(6-OH)]Y[NMeF]I[Sar][X11][Phe(4-COOH)]R[NMeF][X1][NMeE][NMeF][dC]-{Piperazinyl(4-CH2COOH)}; thioether N-15)				
0	0	100	100	CCCCCCC[C@@H]1NC(=O)[C@H](Cc2ccccc2)N(C)C(=O)[C@H](CCCNC(=N)N)NC(=O)[C@H](Cc2ccc(C(=O)O)cc2)NC(=O)[C@H](Cc2cccc(OCC(=O)O)c2)NC(=O)[C@H](C)N(C)C(=O)[C@H]([C@@H](C)CC)NC(=O)[C@H](Cc2ccccc2)N(C)C(=O)[C@H](Cc2ccc(O)cc2)NC(=O)[C@H](Cc2cn(-c3ccccc3)c3ccccc23)NC(=O)[C@H](C)NC(=O)[C@H](C)NC(=O)CSC[C@H](C(=O)N2CCN(CC(=O)O)CC2)NC(=O)[C@H](Cc2cccc(-c3ccccc3)c2)N(C)C(=O)[C@H](CCC(=O)O)N(C)C1=O [Myostatin_99_v330] ({CH2CO}-AA[Trp(1-Ph)]Y[NMeF]I[NMeA][Phe(3-OCH2COOH)][Phe(4-COOH)]R[NMeF][X1][NMeE][NMePhe(3-Ph)][dC]-{Piperazinyl(4-CH2COOH)}; thioether N-15)				
0	0	100	100	CCCCCCCCCC[C@@H]1NC(=O)[C@H](Cc2ccccc2)N(C)C(=O)[C@H](CCCNC(=N)N)NC(=O)[C@H](Cc2ccc(C(=O)O)cc2)NC(=O)[C@H](Cc2cccc(OCC(=O)O)c2)NC(=O)[C@H]2CCCN2C(=O)[C@H]([C@@H](C)CC)NC(=O)[C@H](Cc2ccccc2)N(C)C(=O)[C@H](Cc2ccc(O)cc2)NC(=O)[C@H](Cc2cn(-c3ccccc3)c3ccccc23)NC(=O)[C@H](C)NC(=O)[C@H](C)NC(=O)CSC[C@H](C(=O)N2CCN(CC(=O)O)CC2)NC(=O)[C@H](Cc2cccc(-c3ccccc3)c2)N(C)C(=O)[C@H](CCC(=O)O)N(C)C1=O [Myostatin_99_v331] ({CH2CO}-AA[Trp(1-Ph)]Y[NMeF]I[dP][Phe(3-OCH2COOH)][Phe(4-COOH)]R[NMeF][Gly(decyl)][NMeE][NMePhe(3-Ph)][dC]-{Piperazinyl(4-CH2COOH)}; thioether N-15)				
0	0	100	100	CCCCCCCCCC[C@@H]1NC(=O)[C@H](CC2CCCCC2)NC(=O)[C@H](CCCNC(=N)N)NC(=O)[C@H](Cc2ccc(C(=O)O)cc2)NC(=O)[C@H](Cc2cccc(OCC(=O)O)c2)NC(=O)[C@H](C)N(C)C(=O)[C@H]([C@@H](C)CC)NC(=O)[C@H](Cc2ccccc2)N(C)C(=O)[C@H](Cc2ccc(O)cc2)NC(=O)[C@H](Cc2cn(-c3ccccc3)c3ccccc23)NC(=O)[C@H](C)NC(=O)[C@H](C)NC(=O)CSC[C@H](C(=O)N2CCN(CC(=O)O)CC2)NC(=O)[C@H](Cc2cccc(-c3ccccc3)c2)N(C)C(=O)[C@H](CCC(=O)O)N(C)C1=O [Myostatin_99_v332] ({CH2CO}-AA[Trp(1-Ph)]Y[NMeF]I[NMeA][Phe(3-OCH2COOH)][Phe(4-COOH)]R[Cha][Gly(decyl)][NMeE][NMePhe(3-Ph)][dC]-{Piperazinyl(4-CH2COOH)}; thioether N-15)				

Source: patent publication EP4786487A1, “PEPTIDE” (Peptidream Inc, priority 2023, dated 2025)
